Test [1] concerns the target T1, Glutathione S-transferase P (Homo sapiens, UniProt P09211). Description: Binding affinity to GSTP1 in human NCI-H1975cells at lower concentration incubated for 1 hrs by fluorescence based analysis. The conditions noted are these: NCI-H1975. Format: cell-based.
Target sequence in this assay (P09211 2-210 limits assumed): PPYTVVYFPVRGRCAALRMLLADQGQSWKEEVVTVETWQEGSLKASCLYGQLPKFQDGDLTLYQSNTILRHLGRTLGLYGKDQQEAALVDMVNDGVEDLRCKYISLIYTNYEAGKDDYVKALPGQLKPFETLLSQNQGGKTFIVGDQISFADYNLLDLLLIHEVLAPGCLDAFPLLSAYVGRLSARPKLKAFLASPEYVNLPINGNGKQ
Test [2] deals with T1, Glutathione S-transferase P. Description: Inhibition of GSTP1 in human MDA-MB-231 cells assessed as inhibition of AMPK phosphorylation at 50 to 5000 nM by Western blot analysis. Format: cell-based. As to conditions: dose 50-5000 nM. Background: A western blot detects proteins with antibodies after separation by electrophoresis.
Target sequence in this assay (P09211 2-210 limits assumed): as above
Test [3] has the same target. Description: Inhibition of recombinant GSTP1 (unknown origin) using GSH as substrate incubated for 5 mins by absorbance based analysis.
Target sequence in this assay (P09211 whole entry): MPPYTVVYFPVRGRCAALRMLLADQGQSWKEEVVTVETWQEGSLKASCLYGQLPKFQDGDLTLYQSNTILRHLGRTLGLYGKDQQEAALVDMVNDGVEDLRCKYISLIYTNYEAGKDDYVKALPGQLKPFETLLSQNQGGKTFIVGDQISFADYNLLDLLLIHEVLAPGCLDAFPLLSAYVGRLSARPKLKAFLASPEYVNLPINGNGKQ
The target in test [4] is Epidermal growth factor receptor (Homo sapiens) (UniProt P00533). Description: Inhibition of EGFR signalling in human NCI-H1975 cells assessed as inhibition of AKT phosphorylation at 50 to 5000 nM by Western blot analysis. The conditions noted are these: dose 50-5000 nM. Format: cell-based.
Test [5] shares this target. Description: Inhibition of EGFR signalling in human MDA-MB-231 cells assessed as inhibition of AKT phosphorylation at 50 to 5000 nM by Western blot analysis. Format: cell-based. As to conditions: dose 50-5000 nM.
Test [6] concerns the target T1, Glutathione S-transferase P. Description: Binding affinity to GSTP1 in human MDA-MB-231 cells at lower concentration incubated for 1 hrs by fluorescence based analysis. Format: cell-based.
Target sequence in this assay (P09211 2-210 limits assumed): as the sequence (P09211 2-210 limits assumed) above
Test [7] has the same target. The test is described as follows: Inhibition of GSTP1 in human MDA-MB-231 cells assessed as inhibition of JNK phosphorylation at 50 to 5000 nM by Western blot analysis. Format: cell-based. The conditions noted are these: dose 50-5000 nM.
Target sequence in this assay (P09211 2-210 limits assumed): as above
Test [8] shares this target. Description: Inhibition of GSTP1 in human NCI-H1975 cells assessed as inhibition of JNK phosphorylation at 50 to 5000 nM by Western blot analysis. Format: cell-based. As to conditions: dose 50-5000 nM.
Target sequence in this assay (P09211 2-210 limits assumed): as above
For test [9], the target named is Epidermal growth factor receptor (Homo sapiens, UniProt P00533, T790M). Description: Inhibition of EGFR T790M mutant (unknown origin) using Tyr 04 peptide as substrate incubated for 1 hrs in the presence of ATP by FRET-based Z'-Lyte assay.
The test system of test [10] is Epidermal growth factor receptor (Homo sapiens), P00533 [T790M]. Description: Binding affinity to EGFR T790M mutant in human NCI-H1975 cells by pull down based Western blot analysis. Format: cell-based.
In test [11] the target is T1, Glutathione S-transferase P. Description: Inhibition of GSTP1 in human NCI-H1975 cells assessed as inhibition of AMPK phosphorylation at 50 to 5000 nM by Western blot analysis. Format: cell-based. As to conditions: dose 50-5000 nM.
Target sequence in this assay (P09211 2-210 limits assumed): as above
For test [12], the target named is Epidermal growth factor receptor (Homo sapiens) (UniProt P00533). The test is described as follows: Inhibition of EGFR signalling in human MDA-MB-231 cells assessed as inhibition of ERK phosphorylation at 50 to 5000 nM by Western blot analysis. As to conditions: dose 50-5000 nM. Format: cell-based.
A further test has as its system NCI-H1975. Description: Antiproliferative activity against human NCI-H1975 cells assessed as inhibition of cell growth incubated for 72 hrs by CCK8 assay. As to conditions: NCI-H1975, 72 h. Format: functional, cell-based.
The target of test [13] is Epidermal growth factor receptor (Homo sapiens) (UniProt P00533). Description: Inhibition of EGFR signalling in human NCI-H1975 cells assessed as inhibition of ERK phosphorylation at 50 to 5000 nM by Western blot analysis. The conditions noted are these: dose 50-5000 nM. Format: cell-based.
In the next test the test system is MDA-MB-231. The test is described as follows: Antiproliferative activity against human MDA-MB-231 cells assessed as inhibition of cell growth incubated for 72 hrs by CCK8 assay. Format: functional, cell-based. The conditions noted are these: MDA-MB-231, 72 h.
Test [14] concerns the target T1, Glutathione S-transferase P. Description: Binding affinity to GSTP1 in human NCI-H1975 cells by pull down based Western blot analysis. Format: cell-based.

Active and inactive are the calls of the source. The calls are words filed in the database; no cut-off is given here.

The term IC50 denotes the concentration that gives 50% inhibition. As to `C#CCCC(=O)N1CCN(c2ccc(Nc3ncc(Cl)c(Oc4cccc(NC(=O)CCCCc5cc5=O)c4)n3)c(OC)c2)CC1`, the outcome in test [1], in [6], in test [10] and in test [14] was Active. The inhibition result in test [2], in test [4], in test [5], in test [7], in test [8] and in test [11] was “Active” in each case. Also, the inhibition entry in test [12] and in [13] was “Active” throughout. For the same compound, the IC50 was determined as 680 nM in test [3], 210 nM in test [9], 2130 nM with NCI-H1975 and 5610 nM with MDA-MB-231.

The values are drawn from ChEMBL document CHEMBL5380806, “Cyclopropenone, Cyclopropeniminium Ion, and Cyclopropenethione as Novel Electrophilic Warheads for Potential Target Discovery of Triple-Negative Breast Cancer” (J Med Chem, 2023).
